Measurements: the NIST ThermoML archive (doi:10.1021/acs.jced.8b01135)
± gives the expanded uncertainty stated by the source.

Legend:
[1] = Liquid; for speed of sound: Frequency=3 MHz, Single path-length method; for mass density: Vibrating tube method; for viscosity: Concentric cylinders viscometry
[2] = xn = mol fraction of the nth substance listed; settings: 102 kPa, Liquid, x2 = 0; for speed of sound: Frequency=3 MHz, Single path-length method; for mass density: Vibrating tube method; for viscosity: Concentric cylinders viscometry

CCCC1CCCCC1 [1-cyclohexylpropane]
[1]
Settings | mass density, 102 kPa [kg/m3] | speed of sound, 88 kPa [m/s] | speed of sound, 102 kPa [m/s] | viscosity, 102 kPa [mPa·s]
288.15 K | 797.42 ± 0.71 | – | 1328.6 ± 1.6 | –
293.15 K | 793.53 ± 0.71 | 1307.7 ± 0.6 | 1307.7 ± 0.6 | 0.981 ± 0.031
298.15 K | 789.63 ± 0.71 | – | 1287.1 ± 0.6 | –
303.15 K | 785.72 ± 0.71 | 1266.6 ± 0.6 | 1266.6 ± 0.6 | 0.856 ± 0.031
313.15 K | 777.88 ± 0.71 | 1226.2 ± 0.6 | 1226.2 ± 0.6 | 0.75 ± 0.031
323.15 K | 770 ± 0.71 | 1186.5 ± 0.6 | 1186.5 ± 0.6 | 0.668 ± 0.03
333.15 K | 762.09 ± 0.71 | 1147.7 ± 0.6 | 1147.7 ± 0.6 | 0.594 ± 0.03

CCCCCCCCCCCC [dodecane] + CCCCCC1CCCCC1
[2]
Settings | mass density [kg/m3] | speed of sound [m/s] | viscosity [mPa·s]
288.15 K | 752.35 ± 0.71 | 1317.2 ± 0.8 | –
293.15 K | 748.72 ± 0.71 | 1297.7 ± 0.8 | 1.49 ± 0.02
298.15 K | 745.09 ± 0.71 | 1278.2 ± 0.8 | –
303.15 K | 741.46 ± 0.71 | 1259 ± 0.8 | 1.27 ± 0.02
313.15 K | 734.19 ± 0.71 | 1221.1 ± 0.8 | 1.08 ± 0.02
323.15 K | 726.88 ± 0.71 | 1184 ± 0.8 | 0.934 ± 0.021
333.15 K | 719.53 ± 0.71 | 1147.8 ± 0.8 | 0.813 ± 0.021

CCCCCCCCCCCC [dodecane] + CCCCCCCCC1CCCCC1
[2]
Settings | mass density [kg/m3] | speed of sound [m/s] | viscosity [mPa·s]
288.15 K | 752.35 ± 0.71 | 1317.2 ± 0.8 | –
293.15 K | 748.72 ± 0.71 | 1297.7 ± 0.8 | 1.49 ± 0.02
298.15 K | 745.09 ± 0.71 | 1278.2 ± 0.8 | –
303.15 K | 741.46 ± 0.71 | 1259 ± 0.8 | 1.27 ± 0.02
313.15 K | 734.19 ± 0.71 | 1221.1 ± 0.8 | 1.08 ± 0.02
323.15 K | 726.88 ± 0.71 | 1184 ± 0.8 | 0.934 ± 0.021
333.15 K | 719.53 ± 0.71 | 1147.8 ± 0.8 | 0.813 ± 0.021

CCCCCCCCCCCC [dodecane] + CCCCCCCCCCC1CCCCC1
[2]
Settings | mass density [kg/m3] | speed of sound [m/s] | viscosity [mPa·s]
288.15 K | 752.35 ± 0.71 | 1317.2 ± 0.8 | –
293.15 K | 748.72 ± 0.71 | 1297.7 ± 0.8 | 1.49 ± 0.02
298.15 K | 745.09 ± 0.71 | 1278.2 ± 0.8 | –
303.15 K | 741.46 ± 0.71 | 1259 ± 0.8 | 1.27 ± 0.02
313.15 K | 734.19 ± 0.71 | 1221.1 ± 0.8 | 1.08 ± 0.02
323.15 K | 726.88 ± 0.71 | 1184 ± 0.8 | 0.934 ± 0.021
333.15 K | 719.53 ± 0.71 | 1147.8 ± 0.8 | 0.813 ± 0.021
